Where “and” joins values, the source holds several entries; their conditions need not be identical. Equal values may be shown once. Read-outs that look alike come from different tables or passages of the source.
Tests used:
[1] = system: human pancreatic tumor xenograft Panc-1; details: for Efficacy Score = 10*(TWd1−TWdn)/TWd1: single dose IV
Description: [formula] where TTE is expressed in days, endpoint volume is in mm^3, b is the intercept, and m is the slope of the line obtained by linear regression of a log-transformed tumor growth data set. The data set is comprised of the first observation that exceeded the study endpoint volume and the three consecutive observations that immediately preceded the attainment of the endpoint volume. […] Animals classified as TR (treatment-related) deaths or NTRM (non-treatment-related metastasis) deaths are assigned a TTE value equal to the day of death. Animals classified as NTR (non-treatment-related) deaths are excluded from TTE calculations. Treatment efficacy was determined from tumor growth delay (TGD), which is defined as the increase in the median TTE for a treatment group compared to the control group: TGD=T−C, expressed in days, or as a percentage of the median TTE of the control group:
Treatment may cause partial regression (PR) or complete regression (CR) of the tumor in an animal. In a PR response, the tumor volume is 50% or less of its Day 1 volume for three consecutive measurements during the course of the study, and equal to or greater than 13.5 mm^3 for one or more of these three measurements. In a CR response, the tumor volume is less than 13.5 mm^3 for three consecutive measurements during the course of the study. An animal with a CR response at the termination of a study is additionally classified as a long-term tumor-free survivor (LTTFS).
With respect to toxicity, the animals were weighed daily on Days 1-5, then twice weekly until the completion of the study. The mice were examined frequently for overt signs of any adverse, drug-related side effects. […] The log rank test was employed to analyze the significance of the difference between the TTE values of a drug-treated group and the vehicle-treated control group. The log rank test analyzes the data for all animals except the NTR deaths. The two-tailed statistical analyses were conducted at P=0.05. The group median tumor growth curves show the median tumor volume (MTV) as a function of time. When an animal exited the study due to tumor size or TR death, the final tumor volume recorded for the animal was included with the data used to calculate the median volume at subsequent time points. If more than one death occurred in a treatment group, the tumor growth curve for that group was truncated at the time of the second death.
Human Panc-1 pancreatic carcinomas were maintained in athymic nude mice. A tumor fragment (1 mm^3) was implanted s.c. into the right flank of each test mouse. Tumors were monitored twice weekly and then daily as their size approached 200-400 mm^3 with a mean of 250-300 mm^3. On Day 1 of the study, the animals were sorted into groups of six mice, with tumor sizes of 171.5-486.0 mm^3 and group mean tumor sizes of 269.7-275.0 mm^3. Mice were sorted into groups containing six mice each, and treated according to the protocol in Tables 2A and 2B. All treatments were administered intravenously. Control Group 1 mice received the ethanol 5% and Liposyn II 95% vehicle, once on Day 1 (qd×1). […] Dosing volumes were 0.5 ml/20 g body weight for qd×1 dosing regimens and 0.3 mL/20 g body weight for the qod×5 or q4d×4 dosing schedules. Dosing volumes were scaled to the body weight of each animal. The vehicle was given to Group 1 mice in a single dose on Day 1 (qd×1).

Sprague-Dawley rats = assay: In vivo toxicity assessment in rats, oral; parameters: species or system rat; key to Neu Tox score: N (0); −10: Y (1-4); key to PTL R (Recovery) score / L/W Dia score / B/M Dia score / BW R (Recovery) score / WBC R (Recovery) score: −5: N; 0: Y; details: for Total Score AVE: average of 3 rats; for Total Score: per rat, maximum 130; for ALT score / AST score / B/M Dia score / BW score / L/W Dia score / Neu Tox score / WBC R (Recovery) score / WBC score / BUN score / BW R (Recovery) score / PTL R (Recovery) score / PTL score: score per rat
Description: Toxicity was assessed in 250-300g Sprague-Dawley rats and three rats were used per dose group. Three dose groups of the test compound, (i.e., 3 mg/kg, 9 mg/kg and 12 mg/kg for intravenous administration; 15 mg/kg, 30 mg/kg and 40 mg/kg) and 1 control group constituted a study. Animals were observed and clinical chemistry data collected at days 4 and 10. Rats were euthanized on day 11 and the nerves were excised and fixed upon euthanization for further examination.
Each rat is scored as described below and a final toxicity score that incorporates all parameters is assigned. A dead rat is assigned a score of zero. Most of the parameters contribute a positive value towards a total possible score of 130. For body weight, white blood cell, and platelet decreases, recovery is considered. […] The total score is divided by 13 to put it on a scale from 0 to 10.

[2] = Group 2: 20 mg/kg IV qod × 5, 6 mice
[3] = Group 3: 30 mg/kg IV q4d × 4, 6 mice
[4] = Group 4: 120 mg/kg IV qd × 1, 6 mice
[5] = Group 5: 60 mg/kg IV qd × 5 (Table 2A), 6 mice
[6] = oral, High Dose 40 mg/kg, 40 mg/kg
[7] = oral, Low Dose 15 mg/kg, 15 mg/kg
[8] = oral, Mid Dose 30 mg/kg, 30 mg/kg

Compound: CC(=O)OC12COC1CC(O)C1(C)C(=O)C(OC(=O)C3CCCC3)C3=C(C)C(OC(=O)C(O)C(NC(=O)OC(C)C)c4cccs4)CC(O)(C(OC(=O)c4ccccc4)C21)C3(C)C (centres unmarked) [Compound 9091]
- antitumor effectiveness among IV regimens ([1]; 30 mg/kg q4d×4 IV regimen): most effective
- No. of CR [1, 2]: 0
- No. of LTTES [1, 2]: 0
- No. of NTR [1, 2]: 0
- No. of PR [1, 2]: 1
- No. of TR [1, 2]: 5
- Max % BW Loss; Day ([1]; Group 2: 20 mg/kg IV qod × 5, Day 10): −15.7%;
- Tumor Burden Median (n), Day 56 ([1]; Group 2: 20 mg/kg IV qod × 5, n=1): 108 (1) mm^3
- Median TTE ([1]; Group 2: 20 mg/kg IV qod × 5, not evaluable for efficacy (five TR deaths)): 10.0 days
- T − C ([1]; Group 3: 30 mg/kg IV q4d × 4): 40.2 days
- % TGD ([1]; Group 3: 30 mg/kg IV q4d × 4, 30 mg/kg): 254%
- No. of CR [1, 3]: 1
- No. of LTTES [1, 3]: 1
- No. of NTR [1, 3]: 0
- No. of PR [1, 3]: 5
- No. of TR [1, 3]: 0
- Tumor Burden Median (n), Day 56 (MTV) ([1]; Group 3: 30 mg/kg IV q4d × 4, Day 56): 40 mm^3
- Tumor Burden Median (n), Day 56 (MTV) ([1]; Group 3: 30 mg/kg IV q4d × 4, Day 56, 30 mg/kg): 40.25 (6) mm^3
- Median TTE ([1]; Group 3: 30 mg/kg IV q4d × 4, endpoint 1200 mg): 56.0 days
- T − C ([1]; Group 4: 120 mg/kg IV qd × 1): 40.2 days
- % TGD ([1]; Group 4: 120 mg/kg IV qd × 1, 120 mg/kg): 254%
- No. of CR [1, 4]: 0
- No. of LTTES [1, 4]: 0
- No. of NTR [1, 4]: 2
- No. of PR [1, 4]: 6
- No. of TR [1, 4]: 0
- Tumor Burden Median (n), Day 56 (MTV) ([1]; Group 4: 120 mg/kg IV qd × 1, Day 56, 120 mg/kg): 58 mm^3 and 57.5 (6) mm^3
- Median TTE ([1]; Group 4: 120 mg/kg IV qd × 1, endpoint 1200 mg): 56.0 days
- T − C ([1]; Group 5: 60 mg/kg IV qd × 5 (Table 2A)): 40.2 days
- % TGD ([1]; Group 5: 60 mg/kg IV qd × 5 (Table 2A), 60 mg/kg): 254%
- No. of CR [1, 5]: 0
- No. of LTTES [1, 5]: 0
- No. of NTR [1, 5]: 0
- No. of PR [1, 5]: 6
- No. of TR [1, 5]: 0
- Tumor Burden Median (n), Day 56 (MTV) ([1]; Group 5: 60 mg/kg IV qd × 5 (Table 2A), Day 56, 60 mg/kg): 126 mm^3 and 126 (6) mm^3
- Median TTE ([1]; Group 5: 60 mg/kg IV qd × 5 (Table 2A), endpoint 1200 mg): 56.0 days
- end-of-study survivors ([1]; each of 30 mg/kg q4d×4, 120 mg/kg and 60 mg/kg single dose IV, 6 mice per group): six
- Efficacy Score = 10*(TWd1−TWdn)/TWd1 ([1]; Dose 60, best score 10): 7.7
- Efficacy Score = 10*(TWd1−TWdn)/TWd1 ([1]; Dose 120, best score 10): 8.6
- Tox Score, Dose 15 mg (Sprague-Dawley rats; Oral, dose 15 mg, scale 0 to 10): 7.4
- Tox Score, Dose 30 mg (Sprague-Dawley rats; Oral, dose 30 mg, scale 0 to 10): 6.7
- Tox Score, Dose 40 mg (Sprague-Dawley rats; Oral, dose 40 mg, scale 0 to 10): 4.6
- Tox Score, Average (Sprague-Dawley rats; Oral, average of 3 dose groups): 6.2
- Tox Score, Weighted Avg (Sprague-Dawley rats; Oral, weighted by dose): 5.8
- Rat tox score PO (Sprague-Dawley rats; PO, summary score, scale 0 to 10): 6
- toxicity profile in the oral rat studies compared with congener (Sprague-Dawley rats; oral): better toxicity profile
- Total Score AVE (Sprague-Dawley rats; oral, High Dose 40 mg/kg): 60
- Total Score (Sprague-Dawley rats; [6]): 55 and 65 and 60
- Group score = average of 3 rats/13 (Sprague-Dawley rats; oral, High Dose 40 mg/kg, scale 0 to 10): 4.62
- ALT score (Sprague-Dawley rats; oral, High Dose 40 mg/kg): 20 (<1.25Xcont)
- AST score (Sprague-Dawley rats; oral, High Dose 40 mg/kg): 20 (<1.25Xcont)
- B/M Dia score (Sprague-Dawley rats; oral, High Dose 40 mg/kg): 0
- BW score (Sprague-Dawley rats; oral, High Dose 40 mg/kg): 0 (≧20%)
- L/W Dia score (Sprague-Dawley rats; oral, High Dose 40 mg/kg): 0
- Neu Tox score (Sprague-Dawley rats; oral, High Dose 40 mg/kg): −10
- WBC R (Recovery) score (Sprague-Dawley rats; oral, High Dose 40 mg/kg): 0
- WBC score (Sprague-Dawley rats; oral, High Dose 40 mg/kg): 0 (≧50%)
- BUN score (Sprague-Dawley rats; [6]): 10 (≧1.25Xcont) and 20 (<1.25Xcont) (2×)
- BW R (Recovery) score (Sprague-Dawley rats; [6]): 0 and −5 (2×)
- PTL R (Recovery) score (Sprague-Dawley rats; [6]): −5 and 0 (2×)
- PTL score (Sprague-Dawley rats; [6]): 20 (<25%) (2×) and 5 (≧50%)
- Total Score AVE (Sprague-Dawley rats; oral, Low Dose 15 mg/kg): 96.7
- Total Score (Sprague-Dawley rats; [7]): 110 and 85 and 95
- Group score = average of 3 rats/13 (Sprague-Dawley rats; oral, Low Dose 15 mg/kg, scale 0 to 10): 7.44
- ALT score (Sprague-Dawley rats; oral, Low Dose 15 mg/kg): 20 (<1.25Xcont)
- AST score (Sprague-Dawley rats; oral, Low Dose 15 mg/kg): 20 (<1.25Xcont)
- B/M Dia score (Sprague-Dawley rats; oral, Low Dose 15 mg/kg): 5
- BUN score (Sprague-Dawley rats; oral, Low Dose 15 mg/kg): 20 (<1.25Xcont)
- BW R (Recovery) score (Sprague-Dawley rats; oral, Low Dose 15 mg/kg): 0
- L/W Dia score (Sprague-Dawley rats; oral, Low Dose 15 mg/kg): 0
- Neu Tox score (Sprague-Dawley rats; oral, Low Dose 15 mg/kg): −10
- PTL R (Recovery) score (Sprague-Dawley rats; oral, Low Dose 15 mg/kg): 0
- WBC R (Recovery) score (Sprague-Dawley rats; oral, Low Dose 15 mg/kg): 0
- BW score (Sprague-Dawley rats; [7]): 20 (<10%) (2×) and 10 (≧10%)
- PTL score (Sprague-Dawley rats; [7]): 20 (<25%) (2×) and 10 (≧25%)
- WBC score (Sprague-Dawley rats; [7]): 5 (≧25%) and 0 (≧50%) (2×)
- Total Score AVE (Sprague-Dawley rats; oral, Mid Dose 30 mg/kg): 86.7
- Total Score (Sprague-Dawley rats; [8]): 85 and 95 and 80
- Group score = average of 3 rats/13 (Sprague-Dawley rats; oral, Mid Dose 30 mg/kg, scale 0 to 10): 6.67
- ALT score (Sprague-Dawley rats; oral, Mid Dose 30 mg/kg): 20 (<1.25Xcont)
- AST score (Sprague-Dawley rats; oral, Mid Dose 30 mg/kg): 20 (<1.25Xcont)
- B/M Dia score (Sprague-Dawley rats; oral, Mid Dose 30 mg/kg): 0
- BUN score (Sprague-Dawley rats; oral, Mid Dose 30 mg/kg): 20 (<1.25Xcont)
- BW R (Recovery) score (Sprague-Dawley rats; oral, Mid Dose 30 mg/kg): 0
- L/W Dia score (Sprague-Dawley rats; oral, Mid Dose 30 mg/kg): 0
- Neu Tox score (Sprague-Dawley rats; oral, Mid Dose 30 mg/kg): −10
- PTL R (Recovery) score (Sprague-Dawley rats; oral, Mid Dose 30 mg/kg): 0
- PTL score (Sprague-Dawley rats; oral, Mid Dose 30 mg/kg): 20 (<25%)
- WBC R (Recovery) score (Sprague-Dawley rats; oral, Mid Dose 30 mg/kg): 0
- BW score (Sprague-Dawley rats; [8]): 5 (≧15%) and 10 (≧10%) (2×)
- WBC score (Sprague-Dawley rats; [8]): 0 (≧50%) (2×) and 5 (≧25%)

Source: patent US8003812B2, “C10 cyclopentyl ester substituted taxanes” (priority 2004, dated 2011)
